This note sets out measurements from patent publication US20020022647A1, “2-(4-bromo or 4-iodo phenylamino) benzoic acid derivatives” (priority 1997, published 2002).

The assay concerns the target GST-MEK (p45MEK) and GST-MAPK (p44MAP kinase) (Homo sapiens, UniProt Q02750). Nature of the assay: Cascade assay for inhibitors of the MAP kinase pathway (In Vitro). Conditions: incorporation of 32P into myelin basic protein. The assay is classed as biochemical. On the procedure: Cascade Assay for Inhibitors of the MAP Kinase Pathway
Incorporation of ^32P into myelin basic protein (MBP) was assayed in the presence of a glutathione S-transferase fusion protein containing p44MAP kinase (GST-MAPK) and a glutathione S-transferase fusion protein containing p45MEK (GST-MEK). The assay solution contained 20 mM HEPES, pH 7.4, 10 mM MgCl2, 1 mM MnCl2, 1 mM EGTA, 50 μM [γ-^32P]ATP, 10 μg GST-MEK0.5 μg GST-MAPK and 40 μg MBP in a final volume of 100 μL. Reactions were stopped after 20 minutes by addition of trichloroacetic acid and filtered through a GF/C filter mat. ^32P retained on the filter mat was determined using a 1205 Betaplate. Compounds were assessed at 10 μM for ability to inhibit incorporation of ^32P.
To ascertain whether compounds were inhibiting GST-MEK or GST MAPK, two additional protocols were employed. In the first protocol, compounds were added to tubes containing GST-MEK, followed by addition of GST-MAPK, MBP and [γ-^32P]ATP. In the second protocol, compounds were added to tubes containing both GST-MEK and GST-MAPK, followed by MBP and [γ-^32P]ATP.

Broadly, the IC50 is the concentration needed to halve the response being measured. Low readings indicate higher potency, high ones lower potency.

GST-MEK (p45MEK) and GST-MAPK (p44MAP kinase), sequence (Q02750 whole entry, the tested form may be a part): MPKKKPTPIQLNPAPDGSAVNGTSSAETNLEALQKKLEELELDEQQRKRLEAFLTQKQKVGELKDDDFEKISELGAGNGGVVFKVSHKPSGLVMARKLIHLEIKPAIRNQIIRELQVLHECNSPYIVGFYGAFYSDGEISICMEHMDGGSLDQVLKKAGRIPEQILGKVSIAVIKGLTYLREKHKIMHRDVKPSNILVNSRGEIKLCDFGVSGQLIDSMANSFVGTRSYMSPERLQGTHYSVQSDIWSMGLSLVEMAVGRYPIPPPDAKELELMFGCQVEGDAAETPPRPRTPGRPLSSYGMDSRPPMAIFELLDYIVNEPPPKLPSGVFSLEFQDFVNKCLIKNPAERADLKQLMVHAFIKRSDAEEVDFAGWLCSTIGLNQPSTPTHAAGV

In turn, `Cc1cc(I)ccc1Nc1cc(F)ccc1C(=O)O` [Example 1, 4-Fluoro-2-(4-iodo-2-methylphenylamino)benzoic acid] came in with an IC50 of 19 nM.

The compound `Cc1cc(I)ccc1Nc1c(C(=O)O)cc(F)c(F)c1F` [Example 2, 3,4,5-Trifluoro-2-(4-iodo-2-methyl-phenylamino)-benzoic acid] had a half-maximal inhibitory concentration (IC50) of 14 nM.

With `Cc1cc(I)ccc1Nc1c(C(=O)O)ccc(F)c1F` [Example 3, 3,4-Difluoro-2-(4-iodo-2-methyl-phenylamino)-benzoic acid], the IC50 worked out at 11.1 nM. The same measure for `Cc1cc(I)ccc1Nc1c(C(=O)O)cc(Br)c(F)c1F` [Example 4, 5-Bromo-3,4-difluoro-2-(4-iodo-2-methyl-phenylamino)-benzoic acid]: 5 nM; for `O=C(O)c1cc(Cl)ccc1Nc1ccc(I)cc1Cl` [Example 5, 5-Chloro-2-(2-chloro-4-iodo-phenylamino)--benzoic acid]: 66 nM; for `Cc1cc(I)ccc1Nc1ccc(Cl)cc1C(=O)O` [Example 6, 5-Chloro-2-(4-iodo-2-methyl-phenylamino)-benzoic acid]: 71 nM. For the compound `Cc1cc(I)ccc1Nc1ccc(Cl)cc1C(=O)[O-].[Na+]` [Example 7, Sodium 5-Chloro-2-(4-iodo-2-methyl-phenylamino)-benzoate], the concentration for half-maximal inhibition (IC50) stood at 72 nM. For `Cc1cc(I)ccc1Nc1ccc(Br)cc1C(=O)O` [Example 8, 5-Bromo-2-(4-iodo-2-methyl-phenylamino)-benzoic acid], the IC50 was 86 nM. `O=C(O)c1cc([N+](=O)[O-])ccc1Nc1ccc(I)cc1Cl` [Example 9, 2-(2-Chloro-4-iodo-phenylamino)-5-nitro-benzoic acid] registered a concentration for half-maximal inhibition (IC50) of 97 nM. The figure for `Cc1c(Nc2cc(F)ccc2C(=O)O)ccc(I)c1F` [Example 10, 4-Fluoro-2-(3-fluoro-4-iodo-2-methyl-phenylamino)-benzoic acid] is 101 nM; for `Cc1cc(I)ccc1Nc1ccc([N+](=O)[O-])cc1C(=O)O` [Example 11, 2-(4-Iodo-2-methyl-phenylamino)-5-nitro-benzoic acid] it is 128 nM. Compound `O=C(O)c1cc([N+](=O)[O-])ccc1Nc1ccc(I)cc1F` [Example 12, 2-(2-Fluoro-4-iodo-phenylamino)-5-nitro-benzoic acid] showed an IC50 of 135 nM. The figure for `Cc1cc(Br)ccc1Nc1cc(F)ccc1C(=O)O` [Example 13, 2-(4-Bromo-2-methyl-phenylamino)-4-fluoro-benzoic acid] is 178 nM; for `O=C(O)c1cc([N+](=O)[O-])ccc1Nc1ccc(I)cc1Br` [Example 14, 2-(2-Bromo-4-iodo-phenylamino)-5-nitro-benzoic acid] it is 179 nM; for `Cc1cc(Br)ccc1Nc1c(C(=O)O)ccc(F)c1F` [Example 15, 2-(4-Bromo-2-methyl-phenylamino)-3,4-difluoro-benzoic acid] it is 194 nM. In turn, `Cc1cc(I)ccc1Nc1c(F)cccc1C(=O)O` [Example 16, 3-Fluoro-2-(4-iodo-2-methyl-phenylamino)-benzoic acid] came in with an IC50 of 323 nM.

Regarding `COc1cc(I)ccc1Nc1c(C(=O)O)ccc(F)c1F` [Example 17, 3,4-Difluoro-2-(4-iodo-2-methoxy-phenylamino)-benzoic acid], the IC50 amounted to 434 nM. The same measure for `Cc1cc(I)ccc1Nc1cc(Cl)ccc1C(=O)O` [Example 18, 4-Chloro-2-(4-iodo-2-methyl-phenylamino)-benzoic acid]: 446 nM; for `Cc1cc(I)ccc1Nc1ccccc1C(=O)O` [Example 19, 2-(4-Iodo-2-methyl-phenylamino)-benzoic acid]: 524 nM. `Cc1cc(I)ccc1Nc1ccc(F)cc1C(=O)O` [Example 20, 5-Fluoro-2-(4-iodo-2-methyl-phenylamino)-benzoic acid] displayed a half-maximal inhibitory concentration (IC50) of 557 nM. `Cc1cc(I)ccc1Nc1ccc(I)cc1C(=O)O` [Example 21, 5-Iodo-2-(4-iodo-2-methyl-phenylamino)-benzoic acid] displayed an IC50 of 569 nM.

With `Cc1cc(I)ccc1Nc1c(F)cc(C(=O)O)c(F)c1F` [Example 22, 2,3,5-Trifluoro-4-(4-iodo-2-methyl-phenylamino)-benzoic acid], the concentration for half-maximal inhibition (IC50) worked out at 1581 nM. The same measure for `Cc1c(Nc2cc(F)ccc2C(=O)O)ccc(I)c1Cl` [Example 23, 4-Fluoro-2-(3-chloro-4-iodo-2-methyl-phenylamino) benzoic acid]: 1588 nM; for `COc1ccc(Nc2ccc(I)cc2)c(C(=O)O)c1` [Example 24, 2-(4-Iodo-phenylamino)-5-methoxy-benzoic acid]: 1944 nM.

`O=C(O)c1cccc(Cl)c1Nc1ccc(I)cc1Cl` [Example 25, 3-Chloro-2-(2-chloro-4-iodo-phenylamino)-benzoic acid] showed an IC50 of 2363 nM. Consider `Cc1cc(I)ccc1Nc1cccc(F)c1C(=O)O` [Example 26, 2-Fluoro-6-(4-iodo-2-methyl-phenylamino)-benzoic acid], for which the 50% inhibitory concentration (IC50) was determined as 2609 nM. The compound `Cc1ccc(Nc2ccc(I)cc2C)c(C(=O)O)c1` [Example 28, 5-Methyl-2-(4-iodo-2-methyl-phenylamino)-benzoic acid] gave an IC50 of 3670 nM. The same measure for `Cc1cc(I)ccc1Nc1cccc(Cl)c1C(=O)O` [Example 29, 2-Chloro-6-(4-iodo-2-methyl-phenylamino)-benzoic acid]: 5331 nM; for `COc1ccc(NC(=O)c2ccc(OC)c([N+](=O)[O-])c2)cc1` [Example 32, 4-Methoxy-N-(4-methoxy-phenyl)-3-nitro-benzamide]: 28 nM.

`Cc1cc(I)ccc1Nc1cc(F)ccc1C(N)=O` [Example 33, 4-Fluoro-2-(4-iodo-2-methyl-phenylamino)-benzaniide] displayed an IC50 of 52 nM.

`CNC(=O)c1ccc(F)cc1Nc1ccc(I)cc1C` [Example 34] returned an IC50 of 98 nM. The same measure for `CCNC(=O)c1ccc(F)cc1Nc1ccc(I)cc1C` [Example 35, N-Ethyl-4-fluoro-2-(4-iodo-2-methyl-phenylamino)-benzamide]: 121 nM. Regarding `Cc1cc(I)ccc1Nc1cc(F)ccc1C(=O)N(C)C` [Example 36, 4-Fluoro-2-(4-iodo-2-methyl-phenylamino)-N,N-dimethyl-benzamide], the IC50 stood at 129 nM. Regarding `Cc1cc(I)ccc1Nc1cc(F)ccc1C(=O)Nc1nnn[nH]1` [Example 37, 4-Fluoro-2-(4-iodo-2-methyl-phenylamino)-N-(1H-tetrazol-5-yl)-benzamide], the concentration for half-maximal inhibition (IC50) was determined as 237 nM. `Cc1cc(I)ccc1Nc1ccc(Br)cc1C(N)=O` [Example 38, 5-Bromo-2-(4-iodo-2-methyl-phenylamino)-benzamide]: the IC50 was found to be 412 nM. In turn, `Cc1cc(I)ccc1Nc1ccc(Cl)cc1C(=O)N(C)C` [Example 39, 5-Chloro-2-(4-iodo-2-methyl-phenylamino)-N,N-dimethyl-benzamide] yielded a half-maximal inhibitory concentration (IC50) of 497 nM. The same measure for `CCCNC(=O)c1ccc(F)cc1Nc1ccc(I)cc1C` [Example 41, 4-Fluoro-2-(4-iodo-2-methyl-phenylamino)-N-propyl-benzamide]: 872 nM; for `Cc1cc(I)ccc1Nc1ccc(Br)cc1C(=O)NCCO` [Example 42, 5-Bromo-N-(2-hydroxy-ethyl)-2-(4-iodo-2-methyl-phenylamino)-benzamide]: 920 nM.

`Cc1cc(I)ccc1Nc1cc(F)ccc1C(=O)NCCCN1CCN(CCO)CC1` [Example 44, 4-Fluoro-N-{3-[4-(2-hydroxy-ethyl)-piperazin-1-yl]-propyl}-2-(4-iodo-2-methyl-phenylamino)-benzamide] showed an IC50 of 1481 nM. In the case of `CCN(CC)C(=O)c1cc([N+](=O)[O-])ccc1Nc1ccc(I)cc1C` [Example 45, N,N-Diethyl-2-(4-iodo-2-methyl-phenylamino)-5-nitro-benzamide], the IC50 stood at 1755 nM. The same measure for `CCCCNC(=O)c1ccc(F)cc1Nc1ccc(I)cc1C` [Example 46, N-Butyl-4-fluoro-2-(4-iodo-2-methyl-phenylamino)-benzamide]: 1814 nM; for `CCN(CC)C(=O)c1cc(Cl)ccc1Nc1ccc(I)cc1C` [Example 47, 5-Chloro-N,N-diethyl-2-(4-iodo-2-methyl-phenylamino)-benzamide]: 1911 nM.

`Cc1cc(I)ccc1Nc1ccc(Br)cc1C(=O)N(C)C` [Example 48] showed an IC50 of 1945 nM. Turning to `Cc1cc(I)ccc1Nc1ccc([N+](=O)[O-])cc1CO` [Example 51, [2-(4-Iodo-2-methyl-phenylamino)-5-nitro-phenyl]-methanol], the IC50 came to 887 nM.

With `Cc1cc(I)ccc1Nc1ccc(Br)cc1CO` [Example 52, [5-Bromo-2-(4-iodo-2-methyl-phenylamino)-phenyl]-methanol], the half-inhibitory concentration (IC50) is 2346 nM. For `Cc1cc(I)ccc1Nc1c(C(=O)NCC(O)CO)ccc(F)c1F` (stereo not shown) [Example 54, N-(2,3-Dihydroxy-propyl)-3,4-difluoro-2-(4-iodo-2-methyl-phenylamino)-benzamide], the half-inhibitory concentration (IC50) came to 158 nM.
